Source: patent US20210261539A1, “COMPOUND HAVING BET INHIBITORY ACTIVITY AND PREPARATION METHOD AND USE THEREFOR” (Shanghai Haihe Pharmaceutical Co., Ltd., priority 2018, published 2021)

Target: T1, BRD4 BD1 (Homo sapiens, UniProt O60885)
T1 construct: Protein BRD4 BD1 used in the assay was purchased from Active Motif (cat. 31380); purchased Active Motif 31380
Experiment: HTRF in vitro enzyme activity assay, inhibition of BRD4 BD1 binding to acetylated H4 peptide
Details: IC50 values of the compounds against BRD4 BD1 binding; class symbols A/B/C
Protocol: Effect Examples: In Vitro Enzyme Activity Assay
Half inhibitory activity (IC50) of the compounds of the invention against the bromodomain protein BRD4 BD1 was determined in the present Examples.
The compounds of the invention were tested for inhibitory activity against BRD4 BD1 with Homogeneous Time-Resolved Fluorescence (HTRF).
2. Reagents, Consumable Materials and Instruments:
Protein BRD4 BD1 used in the assay was purchased from Active Motif (cat. 31380); streptavidin XL-665 (#610SAXLA) and EPIgeneous Binding Domain Kit A (#62BDAPEG) were both purchased from Cisbio Bioassays; [Lys(5,8,12,16)Ac] H4(1-21)-biotin (#64989), [Lys(5,8,12,16)Ac]H4(1-25) were available from Anaspec; OTX015 and ABBV-075 were purchased from Selleckchem Co. The 384-well ProxiPlate (#6008280) was purchased from Perkinelmer Co. The Laboratory microplate reader (Envision 2104) was available from PerkinElmer Co. The water used in the assay was Millipore-Q pure water.
3. Formulation of the Compound
10 mM DMSO stock solution of the test compound was diluted to 1 mM in DMSO, and then diluted 10-fold in Binding Domain dilution buffer (purchased from Cisbio Bioassays) for use (DMSO concentration in the final system was 0.1%), including 5 concentrations in 1:5 gradient.
4. Assay Protocol: 1 Batch, 2 Repeats
1) 5 μL of test compound was transferred to 45 μL Binding Domain dilution buffer.
2) 2 μL of 1× compound (4 μL Binding Domain dilution buffer: positive control; 6 μL enzyme buffer (purchased from Cisbio Bioassays): negative control) was transferred to a reaction plate.
3) 4 μL of 5×BRD 4(1) was added to the reaction plate (30 nM in the final system).
4) 4 μL of 5×[Lys(5,8,12,16)Ac] H4(1-21)-biotin was added to the reaction plate, and the plate was covered with a film and incubated at 37° C. for 30 min.
5) A detection mixture of SA-XL665 (2×) and anti-H3K9me0-Eu(K) (2×) was prepared in detection buffer (purchased from Cisbio Bioassays).
6) 10 μL of detection mixture (2×) was added to each well, incubated at RT for 3 h. The mp value was read by microplate reader Envision with the following parameters: […]

IC50	SMILES
≤ 10 nM	CC1C(=O)N(C)c2ccc(N3C(=O)c4c(C(=O)O)cccc4C3c3ccc(F)cc3)nc2N1C1CC1 (single isomer, unassigned) [Example A81-P4]
≤ 10 nM	CNC(=O)c1cccc2c1C(=O)N(c1ccc3c(n1)N(C1CC1)C(C)C(=O)N3C)C2c1cccnc1 (single isomer, unassigned) [Example A83-P3]
≤ 10 nM	CC1C(=O)N(C)c2cnc(N3C(=O)c4ccccc4C3c3ccccc3)nc2N1C1CC1 (single isomer, unassigned) [Example A92-P4, 8-cyclopropyl-5,7-dimethyl-2-(1-oxo-3-phenylisoindolin-2-yl)-7,8-dihydropteridin-6(5H)-one]
≤ 10 nM	CC1C(=O)N(C)c2cnc(N3C(=O)c4ccccc4C3c3ccc(C(F)(F)F)cc3)nc2N1C1CC1 (single isomer, unassigned) [Example A93-P4, 8-cyclopropyl-5,7-dimethyl-2-(1-oxo-3-(4-(trifluoromethyl)phenyl)isoindolin-2-yl)-7,8-dihydropteridin-6(5H)-one]
≤ 10 nM	CC1C(=O)N(C)c2cnc(N3C(=O)c4ccccc4C3c3cccnc3)nc2N1C1CC1 (single isomer, unassigned) [Example A98-P3, 8-cyclopropyl-5,7-dimethyl-2-(1-oxo-3-(pyridin-3-yl)isoindolin-2-yl)-7,8-dihydropteridin-6(5H)-one]
≤ 10 nM	Cc1ccc(C2c3ccccc3C(=O)N2c2ccc3c(n2)O[C@H](C)C(=O)N3C)cn1 (single isomer, unassigned) [Example A112-P1]
≤ 10 nM	C[C@H]1Oc2nc(N3C(=O)c4c(cccc4C(C)(C)O)C3c3ccc(F)cc3)ccc2N(C)C1=O (single isomer, unassigned) [Example A119-P1]
100 to 1000 nM	C[C@H]1Oc2cc(N3C(=O)c4ccccc4C3c3ccc(F)nc3)ncc2N(C)C1=O (single isomer, unassigned) [Example A125-P1]
≤ 10 nM	CC1C(=O)N(C)c2ccc(N3C(=O)c4cc(C(=O)O)ccc4C3c3ccc(F)cc3)nc2N1C1CC1 (centres unmarked) [A77-P1/P4, 2-(4-cyclopropyl-1,3-dimethyl-2-oxo-1,2,3,4-tetrahydropyrido[2,3-b]pyrazin-6-yl)-1-(4-fluorophenyl)-3-oxoisoindoline-5-carboxylic acid]
≤ 10 nM	CC1C(=O)N(C)c2cnc(N3C(=O)c4ccccc4C3c3ccc(F)nc3)nc2N1C1CC1 (centres unmarked) [A99-P3/P4, 8-cyclopropyl-2-(1-(6-fluoropyridin-3-yl)-3-oxoisoindol-2-yl)-5,7-dimethyl-7,8-dihydropteridin-6(5H)-one]
10 to 100 nM	CC1C(=O)N(C)c2ccc(N3C(=O)c4ccccc4C3(O)c3ccc(F)cc3)nc2N1C1CC1 (centres unmarked) [Compound A25, 4-cyclopropyl-6-(1-(4-fluorophenyl)-1-hydroxy-3-oxoisoindolin-2-yl)-1,3-dimethyl-3,4-dihydropyrido[2,3-b]pyrazin-2(1H)-one]

More lines, now with the values behind:

SMILES	IC50
COC(=O)c1cccc2c1C(=O)N(c1ccc3c(n1)N(C1CC1)C(C)C(=O)N3C)C2c1ccc(F)cc1 (single isomer, unassigned) [Example A80-P3, Methyl 2-(4-cyclopropyl-1,3-dimethyl-2-oxo-1,2,3,4-tetrahydropyrido[2,3-b]pyrazin-6-yl)-1-(4-fluorophenyl)-3-oxoisoindoline-4-carboxylate]	≤ 10 nM
CC1C(=O)N(C)c2ccc(N3C(=O)c4c(C(=O)N5CCN(C)CC5)cccc4C3c3ccc(F)cc3)nc2N1C1CC1 (single isomer, unassigned) [Example A82-P4]	≤ 10 nM
COC(=O)c1cccc2c1C(=O)N(c1ccc3c(n1)N(C1CC1)C(C)C(=O)N3C)C2c1cccnc1 (single isomer, unassigned) [Example A84-P4, Methyl 2-(4-cyclopropyl-1,3-dimethyl-2-oxo-1,2,3,4-tetrahydropyrido[2,3-b]pyrazin-6-yl)-3-oxo-1-(pyridin-3-yl)isoindoline-4-carboxylate]	≤ 10 nM
CNC(=O)c1cccc2c1C(=O)N(c1ccc3c(n1)N(C)C(C)C(=O)N3C)C2c1ccccc1 (single isomer, unassigned) [Example A88-P4, N-methyl-3-oxo-1-phenyl-2-(1,3,4-trimethyl-2-oxo-1,2,3,4-tetrahydropyrido[2,3-b]pyrazin-6-yl)isoindoline-4-carboxamide]	≤ 10 nM
C[C@@H]1C(=O)N(C)c2cnc(N3C(=O)c4ccccc4C3c3ccc(F)nc3)nc2N1C (single isomer, unassigned) [Example A91-P2]	≤ 10 nM
C[C@@H]1C(=O)N(C)c2cnc(N3C(=O)c4c(cccc4C(C)(C)O)C3c3ccc(F)cc3)nc2N1C (single isomer, unassigned) [Example A96-P1]	≤ 10 nM
C[C@@H]1C(=O)N(C)c2cnc(N3C(=O)c4cc(F)ccc4C3c3cccnc3)nc2N1C (single isomer, unassigned) [Example A97-P1]	≤ 10 nM
CC1C(=O)N(C)c2cnc(N3C(=O)c4ccccc4C3c3ccc(F)nc3)nc2N1C1CC1 (single isomer, unassigned) [Example A101-P3, 8-cyclopropyl-2-(1-(6-fluoropyridin-3-yl)-3-oxoisoindol-2-yl)-5,7-dimethyl-7,8-dihydropteridin-6(5H)-one]	≤ 10 nM
C[C@H]1Oc2nc(N3C(=O)c4ccccc4C3c3ccc(F)nc3)ncc2N(C)C1=O (single isomer, unassigned) [Example A105-P1]	10 to 100 nM
CC1Oc2cc(N3C(=O)c4ccccc4C3c3cccnc3)cc(F)c2N(C)C1=O (single isomer, unassigned) [Example A107-P3, 1-methyl-3-methyl-6-(1-oxo-3-(pyridin-3-yl)isoindolin-2-yl)-8-fluoro-1H-benzo[2,3-B][1,4]oxazin-2(3H)-one]	10 to 100 nM
C[C@H]1Oc2nc(N3C(=O)c4ccccc4C3c3ccc(F)cn3)ccc2N(C)C1=O (single isomer, unassigned) [Example A110-P1]	≤ 10 nM
C[C@H]1Oc2nc(N3C(=O)c4ccccc4C3c3ccc(F)nc3)ccc2N(C)C1=O (single isomer, unassigned) [Example A111-P1]	≤ 10 nM
Cc1ccc(C2c3ccccc3C(=O)N2c2cc3c(cn2)N(C)C(=O)[C@@H](C)O3)cn1 (single isomer, unassigned) [Example A113-P1]	100 to 1000 nM
C[C@H]1Oc2nc(N3C(=O)c4sccc4C3c3cccnc3)ccc2N(C)C1=O (single isomer, unassigned) [Example A115-P1]	≤ 10 nM
CC1Oc2nc(N3C(=O)c4ccccc4C3c3ccc(F)cc3)ccc2N(CC(F)(F)F)C1=O (single isomer, unassigned) [Example A120-P1, 6-(1-(4-fluorophenyl)-3-oxoisoindol-2-yl)-3-methyl-1-(2,2,2-trifluoroethyl)-1H-pyrido[2,3-B][1,4]oxazin-2(3H)-one]	100 to 1000 nM
C[C@H]1Oc2nc(N3C(=O)c4ccccc4C3c3ccccn3)ccc2N(C)C1=O (single isomer, unassigned) [Example A121-P1]	≤ 10 nM
C[C@H]1Oc2nc(N3C(=O)c4ccccc4C3c3ccc(Cl)nc3)ccc2N(C)C1=O (single isomer, unassigned) [Example A122-P1]	10 to 100 nM
C[C@H]1Oc2cc(N3C(=O)c4ccccc4C3c3cccnc3)ncc2N(C)C1=O (single isomer, unassigned) [Example A123-P2]	100 to 1000 nM
C[C@H]1Oc2nc(N3C(=O)c4ccccc4C3c3cccnc3)c(F)cc2N(C)C1=O (single isomer, unassigned) [Example A124-P1]	10 to 100 nM
C[C@H]1Oc2nc(N3C(=O)c4ccccc4C3c3ccc(F)nc3)c(F)cc2N(C)C1=O (single isomer, unassigned) [Example A126-P1]	10 to 100 nM
C[C@H]1Oc2nc(N3C(=O)c4c(cccc4[S+](C)[O-])C3c3cccnc3)ccc2N(C)C1=O (single isomer, unassigned) [Example A127-P1]	≤ 10 nM
C[C@H]1Oc2nc(N3C(=O)c4c(cccc4S(C)(=O)=O)C3c3cccnc3)ccc2N(C)C1=O (single isomer, unassigned) [Example A128-P1]	10 to 100 nM
C[C@H]1Oc2nc(N3C(=O)c4c([S+](C)[O-])cccc4C3(O)c3cccnc3)ccc2N(C)C1=O (single isomer, unassigned) [Example A129-P3]	10 to 100 nM
C[C@@H]1C(=O)N(C)c2cnc(N3C(=O)c4c(cccc4[S+](C)[O-])C3c3cccnc3)nc2N1C (stereo partly drawn) [A102-P2/P3, (7R)-5,7,8-trimethyl-2-(4-(methylsulfinyl)-3-oxo-1-(pyridin-3-yl)isoindolin-2-yl)-7,8-dihydropteridin-6(5H)-one]	≤ 10 nM
